Key:
[1] = tested on: primary hippocampal neurons; assay: Hippocampal neuronal growth: neurite outgrowth of cultured primary hippocampal neurons, anti-tau immunostaining, confocal microscopy; type: cell-based, Sprague-Dawley rats; settings: 48 h
Procedure: In certain embodiments, the activity of the compounds provided herein to modulate neuronal growth, can be tested using cultured primary hippocampal neurons. Primary hippocampal neurons are cultured on poly-DL-ornithine-coated coverslips with or without each compound. After 48 h, the neurons are fixed, immunostained with anti-tau antibodies, and examined by confocal fluorescence microscopy. The effect of sulfated tetrasaccharide CS-E on neuronal morphology and growth is illustrated in FIGS. 1A-B. The number of neurites emanating from the cell body was enhanced, and the growth of the major extension was stimulated by 39.3±3.6% relative to the poly-DL-omithine control.
Hippocampal Neuronal Cultures. Hippocampal neuronal cultures were prepared using a modified version of the Goslin and Banker protocol (Goslin, K.; Banker, G. In Culturing Nerve Cells; Banker, G.; Goslin, K.; Eds.; MIT Press: Cambridge, Mass., 1991; pp 251-281). Embryos at the E18 stage were obtained from timed-pregnant Sprague-Dawley rats, and the hippocampus from each embryo was dissected. All the hippocampi from one preparation were transferred to a 15 mL conical tube containing 4.5 mL of ice-cold Calcium and Magnesium Free-Hank's Balanced Salt Solution (CMF-HBSS) (GIBCO). Trypsin (2.5%, no EDTA; GIBCO) was added to 5 mL, and the tissue was digested for 15 min at 37° C. The trypsin solution was removed and the tissue rinsed with 5 mL of CMF-HBSS three times. The tissue was then dissociated in 1 mL of CMF-HBSS by passing through a P1000 pipet tip twenty times. The cells were counted with a hemacytometer and plated on glass coverslips at 80 cells/mm2 and cultivated in minimal Eagle's Medium (MEM) (GIBCO) supplemented with the N2 mixture (GIBCO) and 0.1 mM pyruvate. The cultures were maintained in 5% CO2 at 37° C. Glass coverslips were coated as described by Clement et. al. (Clement, A.M.; Nadanaka, S.; Masayama, K.; Mandl, C.; Sugahara, K.; Faissner, A. J. Biol. Chem. 1998, 273, 28444-28453) Briefly, coverslips were precoated with 0.015 mg/mL poly-DL-ornithine (SIGMA) for 1 h at 37° C./5% CO2, washed three times with double distilled H2O, and coated with 0.5 mg/mL of compounds 1-3 in PBS overnight at 37° C./5% CO2. The coverslips were then washed three times with PBS and flooded with MEM+N2 media.
Immunocytochemistry of Hippocampal Neuronal Cultures. After 48 h in culture, hippocampal neurons on coverslips were used for immunostaining. […]
Morphometric Analysis. For quantitative analysis, 50 cells were analyzed per coverslip. Only cells with neurites longer than one cell body diameter were counted. The length of the longest neurite from stained cells was measured using N1H Image 1.52 software. […]

dopaminergic neurons = assay: Outgrowth of cultured dopaminergic neurons; type: cell-based
Source text: (§1) Effect of disaccharide CS-E, tetrasaccharides CS-E, and unsulfated tetrasaccharide on the growth of dopaminergic neurons as well as dorsal root ganglion (DRG) neurons from the spinal cord is illustrated in FIGS. 2A-B and 4A-B, respectively. In certain embodiments, the CS-E tetrasaccharide promoted the outgrowth of cultured dopaminergic and DRG neurons by 30-40% relative to the untreated controls. FIGS. 5 and 7 illustrate binding of tetrasaccharides CS-E, CS-C and disaccharide CS-E to tumor necrosis factor-α and midkine, respectively.

[2] = tested on: dorsal root ganglion (DRG) neurons; assay: Outgrowth of cultured dorsal root ganglion (DRG) neurons from the spinal cord; type: cell-based
Source text: as §1

[3] = primary hippocampal neurons on poly-DL-ornithine-coated coverslips with compound

| Compound | growth of the major extension stimulated relative to the poly-DL-ornithine control ([1]; primary hippocampal neurons on poly-DL-ornithine-coated coverslips with compound (0.5 mg/mL coating)) | number of neurites emanating from the cell body [1, 3] | outgrowth promoted relative to the untreated controls (dopaminergic neurons) | outgrowth promoted relative to the untreated controls [2] | effect on neuronal outgrowth [1, 3] |
| --- | --- | --- | --- | --- | --- |
| C=CCO[C@@H]1O[C@H](COS(=O)(=O)[O-])[C@H](OS(=O)(=O)[O-])[C@H](O[C@@H]2O[C@H](C(=O)[O-])[C@@H](O[C@@H]3O[C@H](COS(=O)(=O)[O-])[C@H](OS(=O)(=O)[O-])[C@H](O[C@@H]4O[C@H](C(=O)[O-])[C@@H](O)[C@H](O)[C@H]4O)[C@H]3NC(C)=O)[C@H](O)[C@H]2O)[C@H]1NC(C)=O.[Na+].[Na+].[Na+].[Na+].[Na+].[Na+] [sulfated tetrasaccharide CS-E, Allyl (sodium β-D-glucopyranosyluronate)-(1→3)-(4,6-di-O-sodiumsulfonato-2-deoxy-2-acetamido-β-D-galactopyranosyl)-(1→4)-(sodium β-D-glucopyranosyluronate)-(1→3)-4,6-di-O-sodium sulfonato-2-deoxy-2-acetamido-β-D-galactopyranoside] | 39.3±3.6% | enhanced | 30-40% | 30-40% |  |
| C=CCO[C@@H]1O[C@H](CO)[C@H](O)[C@H](O[C@@H]2O[C@H](C(=O)[O-])[C@@H](O[C@@H]3O[C@H](CO)[C@H](O)[C@H](O[C@@H]4O[C@H](C(=O)[O-])[C@@H](O)[C@H](O)[C@H]4O)[C@H]3NC(C)=O)[C@H](O)[C@H]2O)[C@H]1NC(C)=O.[Na+].[Na+] [unsulfated tetrasaccharide, Allyl (sodium β-D-glucopyranosyluronate)-(1→3)-(2-deoxy-2-acetamido-β-D-galactopyranosyl)-(1→4)-(sodium β-D-glucopyranosyluronate)-(1→3)-2-deoxy-2-acetamido-β-D-galactopyranoside] |  |  |  |  | no significant effect |
| Allyl (sodium β-D-glucopyranosyluronate)-(1→3)-4,6-di-O-sodium sulfonato-2-deoxy-2-acetamido-β-D-galactopyranoside [sulfated disaccharide] |  |  |  |  | no significant effect |
